# Data taken from article PMC2952919, “Error-Prone Translesion DNA Synthesis by Escherichia coli DNA Polymerase IV (DinB) on Templates Containing 1,2-dihydro-2-oxoadenine” (Journal of Nucleic Acids, 2010).
# Target: T1, Pol IV (DinB; HT-dinB) (Escherichia coli, UniProt Q47155)
# T1 construct: full-length DinB with His tag (plasmid pET16B-DinB), expressed in E. coli BL21(DE3)/pLysS; tag kept
# T1 sequence (Q47155 1-351): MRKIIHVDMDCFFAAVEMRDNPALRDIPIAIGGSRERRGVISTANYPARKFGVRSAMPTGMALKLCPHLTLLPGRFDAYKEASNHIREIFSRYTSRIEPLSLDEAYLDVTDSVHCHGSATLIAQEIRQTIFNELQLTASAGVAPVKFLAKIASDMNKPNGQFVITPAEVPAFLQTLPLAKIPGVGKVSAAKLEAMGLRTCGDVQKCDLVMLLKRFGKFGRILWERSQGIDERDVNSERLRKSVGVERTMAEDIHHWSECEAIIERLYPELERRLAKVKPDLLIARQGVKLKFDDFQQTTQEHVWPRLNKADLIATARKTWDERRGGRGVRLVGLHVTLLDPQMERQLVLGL
# Assay: primer extension, […]-labelled primer, gel imaging
# Type: biochemical
# Conditions: insertion opposite 2-oxodA (primer 3/template 2, 50 fmol in 10 μl); Pol IV 50 nM; 20°C, 60 min; pH 7.4, 7.5 mM MgCl2; dNTP 0.02~500 μM; printed Km unit is implausible (a rate unit)
row,Compound,Km [fmol/mL/min]
1,Nc1ccn([C@H]2C[C@H](O)[C@@H](COP(=O)(O)OP(=O)(O)OP(=O)(O)O)O2)c(=O)n1 [dCTP],8.5
2,Cc1cn([C@H]2C[C@H](O)[C@@H](COP(=O)(O)OP(=O)(O)OP(=O)(O)O)O2)c(=O)[nH]c1=O [dTTP],25.6
